Data published in US20240246979A1, “cGAS INHIBITORS” (Eli Lilly and Company, priority 2022, published 2024).

Legend:
cGAS [1] = molecular target: T1, cGAS (Homo sapiens, UniProt Q8N884); experiment: Cellular assay to measure cGAS activity (IFNb AlphaLISA in THP1 cells stimulated by RDG-Adenovirus-GFP); type: cell-based; design: host or cells: THP1 cells differentiated with PMA and stimulated with RDG-Adenovirus-GFP; conditions: PMA-differentiated THP1 cells, RDG-Adenovirus-GFP at 1000 MOI; inhibition of IFNb production as marker for cGAS activity
Procedure: Cellular assay to measure cGAS activity: Use THP1 cell line from ATCC to determine inhibition of cGAS activity by test compounds in human cells. Plate cells on 96-well plates at 0.2×10^6/well and differentiate with phorbol myristate acetate (PMA) at 37° C./5% CO2. After 24 hours, replace PMA containing media with media lacking PMA and further incubate overnight. Stimulate cells were then by RDG-Adenovirus-GFP (Vector Biolabs #1768) at 1000 MOI for 4 hours prior to the addition of test compounds. After overnight incubation, transfer 10 μL of the media from each well to a new plate for IFNb analysis as a marker for cGAS activity. Measure quantification of IFNb with an IFNb AlphaLISA Detection kit (Perkin Elmer AL3133F) by mixing the acceptor beads with the cell supernatant followed by the addition of the biotinylated antibody and donor beads. Measure the relative fluorescence signal produced from the interaction of the donor and acceptor beads by a PHERAStar AlphaLISA protocol and evaluate the inhibitory effect of a compound by plotting specific inhibition of IFNb production against log concentration of the test compound. Calculate IC50 values using a 4-parameter non-linear logistic equation (y=(S0+((SInf−S0)/(1+((qAC50/x)^nHill))))).

cGAS [2] = molecular target: T1, cGAS; experiment: In vitro inhibition assay of cGAS activity (cGAMP production, RapidFire mass spectrometry); type: biochemical; design: Insert cDNA encoding full-length of human cGAS; His6; made in house; host or cells: E. coli BL21(DE3); conditions: 10 nM recombinant human cGAS, 60 nM 75-bp dsDNA, 50 μM ATP, 50 μM GTP, 3 hrs
Procedure: Expression and Purification of Recombinant cGAS Protein: Insert cDNA encoding full-length of human cGAS into a modified bacterial expression vector containing an in-frame His6-tag. Induce the E. coli strain BL21(DE3) harboring the plasmid with 1 mM IPTG (Isopropyl β-D-1-thiogalactopyranoside) at 18° C. overnight. Purify the His6-tagged cGAS protein over HISpur Ni-NTA resin in the presence of benzonase and RNase followed by Superdex 200 size exclusion chromatography with storage buffer (50 mM Tris-HCl pH 7.5, 300 mM NaCl, 1 mM DTT, 10% glycerol).
In vitro inhibition assay of cGAS activity: Add a 5 μL mixture containing 10 mM Tris-Cl pH 7.5, 50 mM NaCl, 5 mM MgCl2, 1 mM DTT, 0.01% Triton X-100, 60 nM 75-bp dsDNA, 50 μM ATP, 50 μM GTP, 10 nM of recombinant human cGAS, and serial dilutions of a test compound in DMSO to a 384-well plate and incubate at ambient temperature for 3 hrs. Quench the reaction by the addition of 100 μL of stop solution containing 0.1% formic acid and 0.1 μM internal standard (3′3′-difluoro cGAMP). Measure the amount of cGAMP produced by RapidFire 365 mass spectrometry and evaluate inhibitory effect of a compound by plotting percent specific inhibition of cGAMP production against log concentration of the test compound. Calculate IC50 values using a 4-parameter non-linear logistic equation (y=(S0+((Sinf−S0)/(1+((qAC50/x)^nHill))))).

T1 sequence (Q8N884 whole entry): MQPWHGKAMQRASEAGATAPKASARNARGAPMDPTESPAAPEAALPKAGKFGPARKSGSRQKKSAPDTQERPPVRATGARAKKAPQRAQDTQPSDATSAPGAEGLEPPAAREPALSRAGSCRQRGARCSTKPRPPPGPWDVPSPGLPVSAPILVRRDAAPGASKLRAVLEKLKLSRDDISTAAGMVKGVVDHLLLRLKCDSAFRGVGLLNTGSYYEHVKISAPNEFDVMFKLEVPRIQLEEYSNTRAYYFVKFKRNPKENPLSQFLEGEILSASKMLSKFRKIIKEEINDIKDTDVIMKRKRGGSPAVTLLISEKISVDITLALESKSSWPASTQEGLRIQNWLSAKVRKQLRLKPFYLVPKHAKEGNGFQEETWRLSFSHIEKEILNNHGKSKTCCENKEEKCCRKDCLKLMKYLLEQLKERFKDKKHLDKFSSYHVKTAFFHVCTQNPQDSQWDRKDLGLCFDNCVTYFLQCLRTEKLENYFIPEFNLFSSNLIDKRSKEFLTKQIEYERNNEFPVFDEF

Compound	IC50 (cGAS [1]) [nM]	IC50 (cGAS [2]) [nM]
C[C@H]1C(=O)NCCc2[nH]c3c(Cl)c(Cl)cc(CC#N)c3c21 (single isomer, unassigned) [Example 90]	993	552
C[C@@H]1C(=O)NCCc2c1c1c(NC(=O)CO)cc(Cl)c(Cl)c1n2C (single isomer, unassigned) [Example 92]	259	17.3
C[C@@H]1C(=O)NCCc2c1c1c(NC(=O)CO)cc(Cl)c(Cl)c1n2C (single isomer, unassigned) [Example 93]	> 10000	2760
C[C@H](O)C(=O)Nc1cc(Cl)c(Cl)c2c1c1c(n2C)CCNC(=O)[C@H]1C (single isomer, unassigned) [Example 94]	663	24.7
C[C@H](O)C(=O)Nc1cc(Cl)c(Cl)c2c1c1c(n2C)CCNC(=O)[C@H]1C (single isomer, unassigned) [Example 95]	≥ 10000	7580
C[C@@H](O)CNc1cc(Cl)c(Cl)c2c1c1c(n2C)CCNC(=O)[C@@H]1C (single isomer, unassigned) [Example 98]	2180	42.4
C[C@@H](O)CNc1cc(Cl)c(Cl)c2c1c1c(n2C)CCNC(=O)[C@@H]1C (single isomer, unassigned) [Example 99]	> 10000	1640
C[C@@H](O)CNc1cc(Cl)c(Cl)c2c1c1c(n2C)CCNC(=O)[C@@H]1C (single isomer, unassigned) [Example 100]	1130	30.4
C[C@@H](O)CNc1cc(Cl)c(Cl)c2c1c1c(n2C)CCNC(=O)[C@@H]1C (single isomer, unassigned) [Example 101]	> 10000	1260
Cn1ncc(-c2cc(Cl)c(Cl)c3[nH]c4c(c23)CC(=O)NC[C@H]4CC(C)(C)O)n1 (single isomer, unassigned) [Example 103]	398	17.6
Cn1ncc(-c2cc(Cl)c(Cl)c3[nH]c4c(c23)CC(=O)NC[C@H]4CC(C)(C)O)n1 (single isomer, unassigned) [Example 104]	1570	42.2
CC(C)(O)C[C@@H]1CNC(=O)Cc2c1[nH]c1c(Cl)c(Cl)cc(CC#N)c21 (single isomer, unassigned) [Example 106]	861	188
CC(C)(O)C[C@@H]1CNC(=O)Cc2c1[nH]c1c(Cl)c(Cl)cc(CC#N)c21 (single isomer, unassigned) [Example 107]	649	12.5
CC(C)(O)C[C@@H]1CNC(=O)Cc2c1[nH]c1c(Cl)c(Cl)cc(OCC#N)c21 (single isomer, unassigned) [Example 108]	676	25.7
CC(C)(O)C[C@@H]1CNC(=O)Cc2c1[nH]c1c(Cl)c(Cl)cc(OCC#N)c21 (single isomer, unassigned) [Example 109]	1860	159
Cn1c2c(c3c(OCC#N)cc(Cl)c(Cl)c31)CC(=O)NC[C@H]2CC(C)(C)O (single isomer, unassigned) [Example 110, (R)-2-((7,8-Dichloro-5-(2-hydroxy-2-methylpropyl)-6-methyl-2-oxo-1,2,3,4,5,6-hexahydroazepino[4,5-b]indol-10-yl)oxy)acetonitrile or (S)-2-((7,8-Dichloro-5-(2-hydroxy-2-methylpropyl)-6-methyl-2-oxo-1,2,3,4,5,6-hexahydroazepino[4,5-b]indol-10-yl)oxy)acetonitrile]	3120	2610
Cn1c2c(c3c(OCC#N)cc(Cl)c(Cl)c31)CC(=O)NC[C@H]2CC(C)(C)O (single isomer, unassigned) [Example 111, (R)-2-((7,8-Dichloro-5-(2-hydroxy-2-methylpropyl)-6-methyl-2-oxo-1,2,3,4,5,6-hexahydroazepino[4,5-b]indol-10-yl)oxy)acetonitrile or (S)-2-((7,8-Dichloro-5-(2-hydroxy-2-methylpropyl)-6-methyl-2-oxo-1,2,3,4,5,6-hexahydroazepino[4,5-b]indol-10-yl)oxy)acetonitrile]	231	13.1

Compound	IC50 (cGAS [1]) [nM]	IC50 (cGAS [2]) [nM]
Cn1c2c(c3c(CC#N)cc(Cl)c(Cl)c31)CC(=O)NC[C@H]2CCO (single isomer, unassigned) [Example 122]	2940	934
Cn1c2c(c3c(CC#N)cc(Cl)c(Cl)c31)CC(=O)NC[C@H]2CCO (single isomer, unassigned) [Example 123]	181	14.1
Cn1c2c(c3c(OCC#N)cc(Cl)c(Cl)c31)CC(=O)NC[C@H]2CCO (single isomer, unassigned) [Example 125]	272	18
Cn1c2c(c3c(OCC#N)cc(Cl)c(Cl)c31)CC(=O)NC[C@H]2CCO (single isomer, unassigned) [Example 126]	501	997
Cn1c2c(c3c(CC#N)cc(Cl)c(Cl)c31)CC(=O)NC[C@H]2CC(C)(C)O (single isomer, unassigned) [Example 129]	1320	1550
Cn1c2c(c3c(CC#N)cc(Cl)c(Cl)c31)CC(=O)NC[C@H]2CC(C)(C)O (single isomer, unassigned) [Example 130]	205	12.3
C[C@H]1C(=O)NCC(C)(C)c2[nH]c3c(Cl)c(Cl)cc(NC(=O)CO)c3c21 (single isomer, unassigned) [Example 132]	> 10000	≥ 39800
C[C@H]1C(=O)NCC(C)(C)c2[nH]c3c(Cl)c(Cl)cc(NC(=O)CO)c3c21 (single isomer, unassigned) [Example 133]	820	20
C[C@H]1C(=O)NCC(C)(C)c2c1c1c(NC(=O)CO)cc(Cl)c(Cl)c1n2C (single isomer, unassigned) [Example 134, (R)—N-(7,8-Dichloro-1,5,5,6-tetramethyl-2-oxo-1,2,3,4,5,6-hexahydroazepino[4,5-b]indol-10-yl)-2-hydroxyacetamide or (S)—N-(7,8-Dichloro-1,5,5,6-tetramethyl-2-oxo-1,2,3,4,5,6-hexahydroazepino[4,5-b]indol-10-yl)-2-hydroxyacetamide]	787	17.5
C[C@H]1C(=O)NCC(C)(C)c2c1c1c(NC(=O)CO)cc(Cl)c(Cl)c1n2C (single isomer, unassigned) [Example 135, (R)—N-(7,8-Dichloro-1,5,5,6-tetramethyl-2-oxo-1,2,3,4,5,6-hexahydroazepino[4,5-b]indol-10-yl)-2-hydroxyacetamide or (S)—N-(7,8-Dichloro-1,5,5,6-tetramethyl-2-oxo-1,2,3,4,5,6-hexahydroazepino[4,5-b]indol-10-yl)-2-hydroxyacetamide]	≥ 10000	20200
Cn1ncc(-c2cc(Cl)c(Cl)c3[nH]c4c(c23)CC(=O)NC[C@H]4CC(C)(F)F)n1 (single isomer, unassigned) [Example 136]	1570	16
Cn1ncc(-c2cc(Cl)c(Cl)c3[nH]c4c(c23)CC(=O)NC[C@H]4CC(C)(F)F)n1 (single isomer, unassigned) [Example 137]	> 10000	683
CC(F)(F)C[C@@H]1CNC(=O)Cc2c1[nH]c1c(Cl)c(Cl)cc(CC#N)c21 (single isomer, unassigned) [Example 138]	431	8
CC(F)(F)C[C@@H]1CNC(=O)Cc2c1[nH]c1c(Cl)c(Cl)cc(CC#N)c21 (single isomer, unassigned) [Example 139]	4610	824
C[C@H](O)C(=O)Nc1cc(Cl)c(Cl)c2c1c1c(n2C(F)F)CCNC(=O)[C@H]1C (single isomer, unassigned) [Example 142]	293	29.6
C[C@H](O)C(=O)Nc1cc(Cl)c(Cl)c2c1c1c(n2C(F)F)CCNC(=O)[C@H]1C (single isomer, unassigned) [Example 143]	> 10000	1510
